This is an account of results in PubChem BioAssay AID330 (DTP/NCI, 2004).

Where “and” joins values, the source holds several entries; their conditions need not be identical. Equal entries are not always repeated. Toxic doses and inconclusive results are not listed.

In the assay the test system is P388 leukemia ip, CD2F1 mice, survival T/C. Description: NCI In Vivo Anticancer Drug Screen. Data for tumor model P388 Leukemia (intraperitoneal) in CD2F1 (CDF1) mice. The note with it: endpoint: median survival time, higher = longer survival. In a few lines: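 Mice carrying the transplanted tumor received test compound or vehicle. Survival was recorded in each group, and the value is the treated-group measurement divided by that of the vehicle-treated control group.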

The mark [1] stands for this setting: dose: 50.0 mg/kg/injection, schedule: Q01DX009 (ip), vehicle: saline.
[2] abbreviates: dose: 100.0 mg/kg/injection, schedule: Q01DX009 (ip), vehicle: saline.
Setting [3] is: dose: 200.0 mg/kg/injection, schedule: Q01DX009 (ip), vehicle: saline.
Setting [4] is: dose: 50.0 mg/kg/injection, schedule: Q01DX005 (ip), vehicle: saline with Tween-80.
[5] abbreviates: dose: 100.0 mg/kg/injection, schedule: Q01DX005 (ip), vehicle: saline with Tween-80.
The mark [6] stands for this setting: dose: 60.0 mg/kg/injection, schedule: Q01DX005 (ip), vehicle: Klucel (hydroxypropylcellulose) (HPC).
Where [7] appears, read: dose: 120.0 mg/kg/injection, schedule: Q01DX005 (ip), vehicle: Klucel (hydroxypropylcellulose) (HPC).
Where [8] appears, read: dose: 240.0 mg/kg/injection, schedule: Q01DX005 (ip), vehicle: Klucel (hydroxypropylcellulose) (HPC).
The mark [9] stands for this setting: dose: 50.0 mg/kg/injection, schedule: Q01DX009 (ip), vehicle: saline with Tween-80.
Where [10] appears, read: dose: 100.0 mg/kg/injection, schedule: Q01DX009 (ip), vehicle: saline with Tween-80.
The mark [11] stands for this setting: dose: 200.0 mg/kg/injection, schedule: Q01DX009 (ip), vehicle: saline with Tween-80.
Setting [12] is: dose: 60.0 mg/kg/injection, schedule: Q01DX005 (ip), vehicle: saline.
Setting [13] is: dose: 120.0 mg/kg/injection, schedule: Q01DX005 (ip), vehicle: saline.
Where [14] appears, read: dose: 240.0 mg/kg/injection, schedule: Q01DX005 (ip), vehicle: saline.
Where [15] appears, read: dose: 240.0 mg/kg/injection, schedule: Q01DX005 (ip), vehicle: saline with Tween-80.
Where [16] appears, read: dose: 25.0 mg/kg/injection, schedule: Q01DX001 (ip), vehicle: saline with Tween-80.
Setting [17] is: dose: 50.0 mg/kg/injection, schedule: Q01DX001 (ip), vehicle: saline with Tween-80.

With `c1ccc(Cn2c(-c3ccccc3)c[n+]3ccsc23)cc1`, the T/C is 117 % of control (dose: 3.12 mg/kg/injection, schedule: Q01DX009 (ip), vehicle: saline with Tween-80); 115 % of control and 94 % of control (dose: 6.25 mg/kg/injection, schedule: Q01DX009 (ip), vehicle: saline with Tween-80); 108 % of control and 117 % of control (dose: 12.5 mg/kg/injection, schedule: Q01DX009 (ip), vehicle: saline with Tween-80).
`Cc1nn(C(=O)c2ccncc2)c(C)c1N=Nc1ccc(Cl)cc1`: the T/C was 99 % of control under setting [1], 91 % of control under setting [2] and 90 % of control under setting [3].
Turning to `CC(C)Cc1cccc2c1CCCC2`, the T/C by setting is: (dose: 50.0 mg/kg/injection, schedule: Q01DX005 (ip), vehicle: suspension in saline) 97 % of control; (dose: 100.0 mg/kg/injection, schedule: Q01DX005 (ip), vehicle: suspension in saline) 97 % of control; (dose: 200.0 mg/kg/injection, schedule: Q01DX005 (ip), vehicle: suspension in saline) 101 % of control.
In the case of `CCN(CC)c1ccc2nc3ccc(N=Nc4ccc(O)cc4)cc3[n+](-c3ccccc3)c2c1`, the T/C by setting is: under setting [4], 118 % of control; under setting [5], 114 % of control.
For the compound `N#Cc1cc(Br)ccc1N`, the T/C under setting [1] was 105 % of control, the T/C under setting [2] is 107 % of control and the T/C under setting [3] was 96 % of control.
In the case of `Cc1nn(C)c2ccc3ccccc3c(=O)c12`, the T/C is 101 % of control under setting [6], 102 % of control under setting [7] and 105 % of control under setting [8].
In the case of `COc1cc([N+](=O)[O-])ccc1NC(=O)Nc1nccs1`, the T/C by setting is: under setting [9], 93 % of control; under setting [10], 101 % of control; under setting [11], 99 % of control.
On to `OC1CC2OC2C1O` (stereo not given), for which the T/C is 103 % of control under setting [12], 111 % of control under setting [13] and 111 % of control under setting [14].
In the case of `C/C=C(/C)c1cccc(OCc2ccccc2)c1OCc1ccccc1`, the T/C was 95 % of control under setting [9], 90 % of control under setting [10] and 106 % of control under setting [11].
Consider `O=C1S/C(=C2\C(=O)N(CN3CCOCC3)c3ccccc32)C(=O)N1CN1CCOCC1`, for which the T/C under setting [6] is 100 % of control, the T/C under setting [7] was 108 % of control and the T/C under setting [8] is 108 % of control.
Regarding `O=C(O)C(O)C(O)C1[O][Sb]([c]2ccc([N+](=O)[O-])cc2)[O]C1CO` (stereo not given), the T/C reads like this: (dose: 50.0 mg/kg/injection, schedule: Q01DX005 (ip), vehicle: saline) 98 % of control; (dose: 100.0 mg/kg/injection, schedule: Q01DX005 (ip), vehicle: saline) 107 % of control; (dose: 200.0 mg/kg/injection, schedule: Q01DX005 (ip), vehicle: saline) 118 % of control.
Take `COc1cccc2c1C(=O)c1c(O)c3c(c(O)c1C2=O)C[C@@](O)(C(C)=O)C[C@@H]3OC1CC(NC(=O)C(N)CC(C)C)C(O)C(C)O1` (stereo not given in full): the T/C is 109 % of control (dose: 3.12 mg/kg/injection, schedule: Q04DX003 (ip), vehicle: saline); 119 % of control (dose: 6.25 mg/kg/injection, schedule: Q04DX003 (ip), vehicle: saline); 163 % of control and 186 % of control (dose: 25.0 mg/kg/injection, schedule: Q04DX003 (ip), vehicle: saline); 163 % of control (dose: 50.0 mg/kg/injection, schedule: Q04DX003 (ip), vehicle: saline).
As for `COc1cc(OC)c(/C=N/NC(=S)NC23CC4CC(CC(C4)C2)C3)c(OC)c1`, the T/C was 94 % of control (dose: 15.0 mg/kg/injection, schedule: Q01DX005 (ip), vehicle: saline with Tween-80); 97 % of control (dose: 30.0 mg/kg/injection, schedule: Q01DX005 (ip), vehicle: saline with Tween-80); 89 % of control under setting [15].
On to `CC1Cn2c(nc3sc4c(c3c2=O)CCCC4)S1` (stereo not given), for which the T/C reads like this: (dose: 50.0 mg/kg/injection, schedule: Q01DX009 (ip), vehicle: Klucel (hydroxypropylcellulose) (HPC)) 104 % of control; (dose: 100.0 mg/kg/injection, schedule: Q01DX009 (ip), vehicle: Klucel (hydroxypropylcellulose) (HPC)) 97 % of control; (dose: 200.0 mg/kg/injection, schedule: Q01DX009 (ip), vehicle: Klucel (hydroxypropylcellulose) (HPC)) 106 % of control.
As for `CC(=O)c1ccc(-n2c(=O)n(-c3ccccc3)c3nc4cc(C)ccc4nc32)cc1`, the T/C reads like this: under setting [4], 90 % of control; under setting [5], 92 % of control; (dose: 200.0 mg/kg/injection, schedule: Q01DX005 (ip), vehicle: saline with Tween-80) 98 % of control.
`Cc1cc2nc(CN(CCN(Cc3nc4cc(C)c(C)cc4[nH]3)Cc3nc4cc(C)c(C)cc4[nH]3)Cc3nc4cc(C)c(C)cc4[nH]3)[nH]c2cc1C`: the T/C by setting is: (dose: 12.5 mg/kg/injection, schedule: Q01DX001 (ip), vehicle: saline with Tween-80) 106 % of control; under setting [16], 116 % of control; under setting [17], 116 % of control.
Take `Cc1ncc2c(c1O)COC2C` (stereo not given): the T/C is 100 % of control under setting [12], 97 % of control under setting [13] and 99 % of control under setting [14].
Turning to `CC1CCOBO1` (stereo not given), the T/C was 98 % of control (dose: 100.0 mg/kg/injection, schedule: Q04DX002 (ip), vehicle: Klucel (hydroxypropylcellulose) (HPC)); 101 % of control (dose: 200.0 mg/kg/injection, schedule: Q04DX002 (ip), vehicle: Klucel (hydroxypropylcellulose) (HPC)); 98 % of control (dose: 400.0 mg/kg/injection, schedule: Q04DX002 (ip), vehicle: Klucel (hydroxypropylcellulose) (HPC)).
`CCCCC[CH2][Ge]([CH2]CCCCC)([CH2]CCCCC)[O]C(C)=O`: the T/C (dose: 50.0 mg/kg/injection, schedule: Q01DX001 (ip), vehicle: Klucel (hydroxypropylcellulose) (HPC)) is 100 % of control and 107 % of control; the T/C (dose: 100.0 mg/kg/injection, schedule: Q01DX001 (ip), vehicle: Klucel (hydroxypropylcellulose) (HPC)) is 101 % of control and 106 % of control; the T/C (dose: 200.0 mg/kg/injection, schedule: Q01DX001 (ip), vehicle: Klucel (hydroxypropylcellulose) (HPC)) was 104 % of control and 115 % of control; the T/C (dose: 400.0 mg/kg/injection, schedule: Q01DX001 (ip), vehicle: Klucel (hydroxypropylcellulose) (HPC)) was 120 % of control.
With `COC(=O)c1c(-c2ccccc2)c(-c2ccccc2)[nH]c(=O)c1C#N`, the T/C is, setting by setting: (dose: 60.0 mg/kg/injection, schedule: Q01DX005 (ip), vehicle: saline with Tween-80) 108 % of control; (dose: 120.0 mg/kg/injection, schedule: Q01DX005 (ip), vehicle: saline with Tween-80) 100 % of control; under setting [15], 91 % of control.
With `CN(C)c1nc(Cl)nc2c1nc(Cl)n2C1CCCCO1` (stereo not given), the T/C is 93 % of control (dose: 50.0 mg/kg/injection, schedule: Q01DX005 (ip), vehicle: Klucel (hydroxypropylcellulose) (HPC)); 90 % of control (dose: 100.0 mg/kg/injection, schedule: Q01DX005 (ip), vehicle: Klucel (hydroxypropylcellulose) (HPC)); 102 % of control (dose: 200.0 mg/kg/injection, schedule: Q01DX005 (ip), vehicle: Klucel (hydroxypropylcellulose) (HPC)).
On to `Cc1ccc(O)c(N)c1`, for which the T/C is, setting by setting: under setting [9], 94 % of control; under setting [1], 98 % of control; under setting [10], 100 % of control; under setting [2], 104 % of control and 119 % of control; under setting [11], 105 % of control; under setting [3], 108 % of control and 95 % of control. In addition, the T/C (dose: 400.0 mg/kg/injection, schedule: Q01DX009 (ip), vehicle: saline with Tween-80) was 121 % of control.
For `CCNc1nn2ccccc2c1/C=C(/C#N)C(=O)OCC`, the T/C under setting [16] is 94 % of control; the T/C under setting [17] was 91 % of control; the T/C (dose: 100.0 mg/kg/injection, schedule: Q01DX001 (ip), vehicle: saline with Tween-80) is 91 % of control; the T/C (dose: 200.0 mg/kg/injection, schedule: Q01DX001 (ip), vehicle: saline with Tween-80) was 91 % of control.
